The source of these data is PMC7109250, “Cloning and Functional Characterization of Three Odorant Receptors From the Chinese Citrus fly Bactrocera minax (Diptera: Tephritidae)” (Frontiers in Physiology, 2020).

One may read the EC50 as the concentration that produces a half-maximal response. Higher therefore signals lower potency in that assay.

The first assay concerns the target T1, BminOR16 (Bactrocera minax, UniProt A0A6N0A5X5).
T1 construct: gene OR16; full-length ORF (404 amino acid residues), GenBank MN537977; with BminOrco
T1 sequence (A0A6N0A5X5 1-405): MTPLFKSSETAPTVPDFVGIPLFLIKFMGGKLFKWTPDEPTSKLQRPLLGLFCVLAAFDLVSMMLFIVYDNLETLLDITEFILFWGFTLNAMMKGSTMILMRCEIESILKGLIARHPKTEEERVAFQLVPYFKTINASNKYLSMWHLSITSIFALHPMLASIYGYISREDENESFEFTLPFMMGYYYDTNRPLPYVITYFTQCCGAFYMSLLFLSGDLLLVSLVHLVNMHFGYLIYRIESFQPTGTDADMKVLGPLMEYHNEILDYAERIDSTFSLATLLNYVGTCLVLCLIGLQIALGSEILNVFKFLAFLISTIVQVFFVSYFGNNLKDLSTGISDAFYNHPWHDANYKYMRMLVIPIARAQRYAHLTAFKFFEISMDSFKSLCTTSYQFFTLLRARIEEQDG
T1 sequence (A0A3G2LEL3 1-517 partner): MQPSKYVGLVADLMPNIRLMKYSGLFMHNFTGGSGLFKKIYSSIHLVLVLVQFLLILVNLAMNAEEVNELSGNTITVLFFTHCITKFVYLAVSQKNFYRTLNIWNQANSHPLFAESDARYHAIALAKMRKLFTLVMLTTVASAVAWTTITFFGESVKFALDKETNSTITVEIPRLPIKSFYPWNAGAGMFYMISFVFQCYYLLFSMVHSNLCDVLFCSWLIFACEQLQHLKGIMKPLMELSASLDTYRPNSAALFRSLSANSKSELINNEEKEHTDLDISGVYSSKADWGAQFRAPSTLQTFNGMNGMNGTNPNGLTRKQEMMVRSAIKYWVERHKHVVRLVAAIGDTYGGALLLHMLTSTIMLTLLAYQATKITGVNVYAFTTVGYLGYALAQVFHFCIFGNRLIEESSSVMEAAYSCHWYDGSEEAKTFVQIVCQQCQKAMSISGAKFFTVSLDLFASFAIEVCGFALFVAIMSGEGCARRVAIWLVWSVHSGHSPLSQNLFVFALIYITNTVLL
In words: two-electrode voltage clamp in Xenopus oocytes, mean current at […]. It is filed as cell-based. (Two-electrode voltage clamp holds a large cell at a set potential and records current.)
On to `CCCCCCCCCCCO` [compound 35, undecanol], for which the “two-electrode voltage clamp in Xenopus oocytes, mean current at 10^-4 M” value (“two-electrode voltage clamp” below) is reported as 87 nA.

A further assay has as its target T2, BminOR12 (Bactrocera minax, UniProt A0A6H1V5Y2).
T2 construct: gene OR12; full-length ORF (415 amino acid residues), GenBank MN855530; with BminOrco
T2 sequence (A0A6H1V5Y2 1-415): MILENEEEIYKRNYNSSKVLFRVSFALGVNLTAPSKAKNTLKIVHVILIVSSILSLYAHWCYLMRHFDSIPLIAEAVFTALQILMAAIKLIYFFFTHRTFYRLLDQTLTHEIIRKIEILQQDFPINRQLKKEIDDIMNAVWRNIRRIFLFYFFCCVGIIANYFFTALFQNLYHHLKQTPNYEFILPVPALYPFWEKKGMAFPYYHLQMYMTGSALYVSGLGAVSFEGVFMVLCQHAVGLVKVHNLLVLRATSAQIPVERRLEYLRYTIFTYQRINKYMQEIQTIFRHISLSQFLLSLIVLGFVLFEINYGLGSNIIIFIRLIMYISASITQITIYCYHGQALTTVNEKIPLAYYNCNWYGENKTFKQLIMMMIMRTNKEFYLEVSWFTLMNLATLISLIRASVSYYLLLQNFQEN
T2 sequence (A0A3G2LEL3 1-517 partner): T1 sequence (A0A3G2LEL3 1-517 partner)
The description is as above. The assay is classed as cell-based. The source says:
The respective mean response values of these are | BminOR12/BminOrco responded to eight compounds: benzyl alcohol, (S)-(+)-carvone, 1-octanol, butyl propionate, butyl acrylate
Consider `O=Cc1ccccc1` [compound 9, benzaldehyde], for which the “two-electrode voltage clamp” value was 94 nA.

Take `COC(=O)c1ccccc1O` [compound 10, methyl salicylate]: the “two-electrode voltage clamp” value came to 138 nA.

Regarding `C=C(C)[C@H]1CC=C(C)C(=O)C1` [compound 15, (S)-(+)-carvone], the “two-electrode voltage clamp” value is 34 nA.

In the case of `OCc1ccccc1` [compound 16, benzyl alcohol], the “two-electrode voltage clamp” value turned out to be 33 nA.

With `CCCCOC(=O)CC` [compound 31, butyl propionate], the “two-electrode voltage clamp” value came to 60 nA.

`CCCCCCCCO` [compound 37, 1-octanol]: the “two-electrode voltage clamp” value is recorded as 46 nA.

`C=CC(=O)OCCCC` [compound 40, butyl acrylate]: the “two-electrode voltage clamp” value is recorded as 63 nA.

Take `CC/C=C\CCOC(C)=O` [compound 43, (Z)-3-hexenyl acetate]: the “two-electrode voltage clamp” value was found to be 91 nA.

The next assay deals with T3, BminOR3 (Bactrocera minax, UniProt A0A6N0A5L8).
T3 construct: gene OR5; full-length ORF (450 amino acid residues), GenBank MN537976; with BminOrco
T3 sequence (A0A6N0A5L8 1-451): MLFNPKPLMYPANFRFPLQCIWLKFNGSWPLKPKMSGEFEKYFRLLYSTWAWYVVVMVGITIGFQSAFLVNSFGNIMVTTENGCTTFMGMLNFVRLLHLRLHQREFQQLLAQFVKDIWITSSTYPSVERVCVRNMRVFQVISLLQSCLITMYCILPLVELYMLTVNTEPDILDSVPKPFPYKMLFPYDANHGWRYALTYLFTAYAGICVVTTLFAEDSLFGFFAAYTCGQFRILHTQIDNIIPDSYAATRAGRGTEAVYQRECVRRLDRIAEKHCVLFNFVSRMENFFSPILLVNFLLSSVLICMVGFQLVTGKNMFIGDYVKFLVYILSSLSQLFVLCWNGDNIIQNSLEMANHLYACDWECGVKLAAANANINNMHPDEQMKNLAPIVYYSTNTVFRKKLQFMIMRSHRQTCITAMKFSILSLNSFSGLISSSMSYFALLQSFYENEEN
T3 sequence (A0A3G2LEL3 1-517 partner): T1 sequence (A0A3G2LEL3 1-517 partner)
Briefly: two-electrode voltage clamp in Xenopus oocytes co-expressing BminOR3/BminOrco, dose-response. The assay is classed as cell-based. The source says: two-electrode voltage clamp in Xenopus oocytes co-expressing BminOR3/BminOrco, dose-response on BminOR3 | Dose-response curve of BminOR3/BminOrco Xenopus oocytes to 1-octen-3-ol.
`C=CC(O)CCCCC` (stereo not shown) [compound 2, 1-octen-3-ol] yielded an EC50 of 347 nM.
